Results as given in patent US10023564B2, “G protein-coupled receptor kinase 2 inhibitors and methods for use of the same” (THE REGENTS OF THE UNIVERSITY OF MICHIGAN, priority 2014, dated 2018).

Assays:
GRK2 [1] = molecular target: T1, GRK2 (Homo sapiens (Human), UniProt P25098); details: literature (Setyawan et al. 1999; Tesmer et al. 2010); cited from earlier work
GRK2 [2] = molecular target: T1, GRK2; test: GRK2 kinetic assay (phosphorylation of bROS or tubulin, phosphorimaging); type: biochemical; details: 50 nM GRK, 5 μM ATP, 5 min reaction
Description: The low salt concentration and DDM were used to maximize GRK activity and disrupt small molecule aggregates from forming, respectively. […] Data was analyzed and inhibition curves were fit via GraphPad Prism.

ROCK1 = ROCK1 (Homo sapiens (Human), UniProt Q13464); test: Rho-associated coiled-coil kinase (ROCK) assay, ADP-Glo system; type: biochemical; details: 0.1 μg ROCK1, 1 μg S6K substrate, 100 μM ATP, 60 min
Chain of ROCK1 (Q13464 whole entry, species assumed): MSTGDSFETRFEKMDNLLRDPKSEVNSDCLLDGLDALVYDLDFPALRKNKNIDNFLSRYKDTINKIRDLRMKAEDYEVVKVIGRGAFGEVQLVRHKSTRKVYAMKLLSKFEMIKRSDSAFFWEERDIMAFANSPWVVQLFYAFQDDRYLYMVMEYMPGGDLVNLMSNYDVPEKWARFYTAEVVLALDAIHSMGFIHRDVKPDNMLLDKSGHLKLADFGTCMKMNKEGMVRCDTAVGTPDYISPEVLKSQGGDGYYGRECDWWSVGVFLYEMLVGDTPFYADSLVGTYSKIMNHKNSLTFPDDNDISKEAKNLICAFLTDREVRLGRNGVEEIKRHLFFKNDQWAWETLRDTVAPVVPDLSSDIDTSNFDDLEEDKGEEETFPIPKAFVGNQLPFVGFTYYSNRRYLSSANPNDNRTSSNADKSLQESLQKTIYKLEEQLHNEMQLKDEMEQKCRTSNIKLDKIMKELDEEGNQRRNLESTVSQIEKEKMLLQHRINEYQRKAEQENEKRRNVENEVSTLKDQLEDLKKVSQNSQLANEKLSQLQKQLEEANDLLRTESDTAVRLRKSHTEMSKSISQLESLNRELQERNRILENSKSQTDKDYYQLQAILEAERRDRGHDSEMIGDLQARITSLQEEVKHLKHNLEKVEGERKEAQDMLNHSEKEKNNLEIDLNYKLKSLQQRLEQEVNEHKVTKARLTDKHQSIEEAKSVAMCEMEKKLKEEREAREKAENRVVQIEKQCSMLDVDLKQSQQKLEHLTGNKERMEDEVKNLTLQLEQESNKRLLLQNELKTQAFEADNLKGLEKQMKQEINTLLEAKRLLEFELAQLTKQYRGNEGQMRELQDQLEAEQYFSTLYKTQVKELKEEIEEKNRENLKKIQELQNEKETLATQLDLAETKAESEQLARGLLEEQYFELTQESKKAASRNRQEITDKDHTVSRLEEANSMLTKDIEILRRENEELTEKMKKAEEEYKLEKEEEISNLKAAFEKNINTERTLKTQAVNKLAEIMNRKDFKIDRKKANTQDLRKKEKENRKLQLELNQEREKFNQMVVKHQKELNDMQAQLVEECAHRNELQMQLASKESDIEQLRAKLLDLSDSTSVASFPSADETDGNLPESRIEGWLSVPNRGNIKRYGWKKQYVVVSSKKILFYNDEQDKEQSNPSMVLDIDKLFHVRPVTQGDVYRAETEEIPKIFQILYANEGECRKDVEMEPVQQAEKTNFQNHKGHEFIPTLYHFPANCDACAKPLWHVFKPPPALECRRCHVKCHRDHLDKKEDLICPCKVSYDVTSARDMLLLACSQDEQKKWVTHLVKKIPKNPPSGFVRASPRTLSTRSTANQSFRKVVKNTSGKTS
Description: Rho-associated coiled-coil kinase (ROCK) assays were performed with the ADP-Glo system using 0.1 μg ROCK1 and 1 μg S6K substrate, and 100 μM ATP for 60 min prior to addition of ADP-GLO Reagent, and allowed to incubate for an additional 40 min prior to the addition of the Kinase Detection Reagent and imaging on a PHERASTAR system.

T1 sequence (P25098 whole entry, species assumed): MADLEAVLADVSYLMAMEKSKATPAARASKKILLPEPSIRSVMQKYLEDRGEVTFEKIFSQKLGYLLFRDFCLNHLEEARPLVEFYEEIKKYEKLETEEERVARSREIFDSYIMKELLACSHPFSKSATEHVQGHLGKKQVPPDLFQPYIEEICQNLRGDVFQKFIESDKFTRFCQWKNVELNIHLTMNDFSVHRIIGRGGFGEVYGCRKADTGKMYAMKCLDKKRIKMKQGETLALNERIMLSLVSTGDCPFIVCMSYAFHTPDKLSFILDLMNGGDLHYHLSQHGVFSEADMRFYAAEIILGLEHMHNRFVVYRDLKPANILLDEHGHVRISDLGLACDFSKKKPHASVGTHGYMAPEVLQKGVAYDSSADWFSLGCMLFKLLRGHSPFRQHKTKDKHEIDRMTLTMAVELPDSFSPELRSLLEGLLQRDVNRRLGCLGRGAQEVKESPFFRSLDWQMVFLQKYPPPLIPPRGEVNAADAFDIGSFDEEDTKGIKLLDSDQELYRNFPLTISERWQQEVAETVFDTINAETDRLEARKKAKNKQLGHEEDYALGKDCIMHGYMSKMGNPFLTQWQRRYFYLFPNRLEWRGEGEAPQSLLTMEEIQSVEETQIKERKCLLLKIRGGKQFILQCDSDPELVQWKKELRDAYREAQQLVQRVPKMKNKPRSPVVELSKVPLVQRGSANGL

Row | IC50 (GRK2 [2]) [nM] | IC50 (ROCK1) [nM] | Compound | GRK2 inhibition potency (GRK2 [1])
1 | 1200 |  | CC1=C(C(=O)Nc2ccc3[nH]ncc3c2)C(c2ccc(F)c(C(=O)N(C)Cc3cc(C)[nH]n3)c2)NC(=O)N1 (stereo not shown) [Example E26, 4-(4-fluoro-3-(methyl((5-methyl-1H-pyrazol-3-yl)methyl)carbamoyl)phenyl)-N-(1H-indazol-5-yl)-6-methyl-2-oxo-1,2,3,4-tetrahydropyrimidine-5-carboxamide] | 
2 | 14600 |  | CC1=C(C(=O)Nc2ccc3[nH]ncc3c2)C(c2ccc(F)c(C(=O)N(C)CC3CCCCO3)c2)NC(=O)N1 (stereo not shown) [Example E21, 4-(4-fluoro-3-(methyl((tetrahydro-2H-pyran-2-yl)methyl)carbamoyl)phenyl)-N-(1H-indazol-5-yl)-6-methyl-2-oxo-1,2,3,4-tetrahydropyrimidine-5-carboxamide] | 
3 | 2600 | 17 | CC1=C(C(=O)Nc2ccc3[nH]ncc3c2)C(c2ccc(F)c(C(=O)NCc3nccc4ccccc34)c2)NC(=O)N1 (stereo not shown) [Example E08, 4-(4-fluoro-3-((isoquinolin-1-ylmethyl)carbamoyl)phenyl)-N-(1H-indazol-5-yl)-6-methyl-2-oxo-1,2,3,4-tetrahydropyrimidine-5-carboxamide] | 
4 | 240 |  | COCc1noc(CNC(=O)c2cc(C3NC(=O)NC(C)=C3C(=O)Nc3ccc4[nH]ncc4c3)ccc2F)n1 (stereo not shown) [Example E24, 4-(4-fluoro-3-(((3-(methoxymethyl)-1,2,4-oxadiazol-5-yl)methyl)carbamoyl)phenyl)-N-(1H-indazol-5-yl)-6-methyl-2-oxo-1,2,3,4-tetrahydropyrimidine-5-carboxamide] | 
5 | 680 |  | CC1=C(C(=O)Nc2ccc3[nH]ncc3c2)C(c2ccc(F)c(CC(=O)NCC3CCN(C4CC4)CC3)c2)NC(=O)N1 (stereo not shown) [Example E33, 4-(3-(2-(((1-cyclopropylpiperidin-4-yl)methyl)amino)-2-oxoethyl)-4-fluorophenyl)-N-(1H-indazol-5-yl)-6-methyl-2-oxo-1,2,3,4-tetrahydropyrimidine-5-carboxamide] | 
6 | 7000 |  | CC1=C(C(=O)Nc2ccc3[nH]ncc3c2)C(c2ccc(F)c(CCC(=O)NCCc3ccccc3)c2)NC(=O)N1 (stereo not shown) [Example E38, 4-(4-fluoro-3-(3-oxo-3-(phenethylamino)propyl)phenyl)-N-(1H-indazol-5-yl)-6-methyl-2-oxo-1,2,3,4-tetrahydropyrimidine-5-carboxamide] | 

The next lines start with the compound.

Row | Compound | IC50 (GRK2 [2]) [nM] | IC50 (ROCK1) [nM] | GRK2 inhibition potency (GRK2 [1])
7 | O=C(N[C@@H]1CNCCC[C@H]1OC(=O)c1cc(O)c(C(=O)c2c(O)cccc2C(=O)O)c(O)c1)c1ccc(O)cc1 [balanol] |  |  | low nanomolar range
8 | CC1=C(C(=O)Nc2ccc3[nH]ncc3c2)C(c2ccc(F)c(C(=O)NC3CC4CCC3(C)C4(C)C)c2)NC(=O)N1 (stereo not shown) [Example E25, 4-(4-fluoro-3-((1,7,7-trimethylbicyclo[2.2.1]heptan-2-yl)carbamoyl)phenyl)-N-(1H-indazol-5-yl)-6-methyl-2-oxo-1,2,3,4-tetrahydropyrimidine-5-carboxamide] | 5200 |  | 
9 | CC1=C(C(=O)Nc2ccc3[nH]ncc3c2)C(c2ccc(F)c(C(=O)NCc3c(F)cccc3F)c2)NC(=O)N1 (stereo not shown) [Example E02, 4-(3-((2,6-difluorobenzyl)carbamoyl)-4-fluorophenyl)-N-(1H-indazol-5-yl)-6-methyl-2-oxo-1,2,3,4-tetrahydropyrimidine-5-carboxamide] | 120 | 61 | 
10 | CC1=C(C(=O)Nc2ccc3[nH]ncc3c2)C(c2ccc(F)c(CC(=O)N(C)Cc3nc(C)c[nH]3)c2)NC(=O)N1 (stereo not shown) [Example E34, 4-(4-fluoro-3-(2-(methyl((4-methyl-1H-imidazol-2-yl)methyl)amino)-2-oxoethyl)phenyl)-N-(1H-indazol-5-yl)-6-methyl-2-oxo-1,2,3,4-tetrahydropyrimidine-5-carboxamide] | 1200 |  | 
11 | CC1=C(C(=O)Nc2ccc3[nH]ncc3c2)C(c2ccc(F)c(CC(=O)N(CCO)Cc3ccco3)c2)NC(=O)N1 (stereo not shown) [Example E32, 4-(4-fluoro-3-(2-((furan-2-ylmethyl)(2-hydroxyethyl)amino)-2-oxoethyl)phenyl)-N-(1H-indazol-5-yl)-6-methyl-2-oxo-1,2,3,4-tetrahydropyrimidine-5-carboxamide] | 500 |  | 
12 | COc1ccccc1C(C)NC(=O)c1cc(C2NC(=O)NC(C)=C2C(=O)Nc2ccc3[nH]ncc3c2)ccc1F (stereo not shown) [Example E27, 4-(4-fluoro-3-((1-(2-methoxyphenyl)ethyl)carbamoyl)phenyl)-N-(1H-indazol-5-yl)-6-methyl-2-oxo-1,2,3,4-tetrahydropyrimidine-5-carboxamide] | 320 |  | 
13 | CCC(C)N(C)C(=O)c1cc(C2NC(=O)NC(C)=C2C(=O)Nc2ccc3[nH]ncc3c2)ccc1F (stereo not shown) [Example E19, 4-(3-(sec-butyl(methyl)carbamoyl)-4-fluorophenyl)-N-(1H-indazol-5-yl)-6-methyl-2-oxo-1,2,3,4-tetrahydropyrimidine-5-carboxamide] | 51000 |  | 
14 | C#CCN(CC(C)C)C(=O)Cc1cc(C2NC(=O)NC(C)=C2C(=O)Nc2ccc3[nH]ncc3c2)ccc1F (stereo not shown) [Example E36, 4-(4-fluoro-3-(2-(isobutyl(prop-2-yn-1-yl)amino)-2-oxoethyl)phenyl)-N-(1H-indazol-5-yl)-6-methyl-2-oxo-1,2,3,4-tetrahydropyrimidine-5-carboxamide] | 2600 |  | 
15 | CC1=C(C(=O)Nc2ccc3[nH]ncc3c2)C(c2ccc(F)c(CCC(=O)NCc3ncc(C)o3)c2)NC(=O)N1 (stereo not shown) [Example E37, 4-(4-fluoro-3-(3-(((5-methyloxazol-2-yl)methyl)amino)-3-oxopropyl)phenyl)-N-(1H-indazol-5-yl)-6-methyl-2-oxo-1,2,3,4-tetrahydropyrimidine-5-carboxamide] | 4000 |  | 
16 | CC1=C(C(=O)Nc2ccc3[nH]ncc3c2)C(c2ccc(F)c(CC(=O)N3CCOC(CCO)C3)c2)NC(=O)N1 (stereo not shown) [Example E31, 4-(4-fluoro-3-(2-(2-(2-hydroxyethyl)morpholino)-2-oxoethyl)phenyl)-N-(1H-indazol-5-yl)-6-methyl-2-oxo-1,2,3,4-tetrahydropyrimidine-5-carboxamide] | 1500 |  | 
17 | CC1=C(C(=O)Nc2ccc3[nH]ncc3c2)C(c2ccc(F)c(C(=O)NCC(C)N3CCCCCC3)c2)NC(=O)N1 (stereo not shown) [Example E20, 4-(3-((2-(azepan-1-yl)propyl)carbamoyl)-4-fluorophenyl)-N-(1H-indazol-5-yl)-6-methyl-2-oxo-1,2,3,4-tetrahydropyrimidine-5-carboxamide] | 740 |  | 
